Experimental data taken from ChEMBL document CHEMBL1201862, “PubChem BioAssay data set” (2004).
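In this assay, cells in 96-well plates receive the compound at five concentrations for 48 hours. Endpoints are linearly interpolated between the surrounding concentrations. At the GI50, growth is halved.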 Calls of active or inactive are those of the source. Cut-off read from the data, not from the text of the source: active = GI50 up to about 1.1 µM and inactive = higher.

Experiments:
Test in all cases: inhibition of tumour cell growth, NCI panel, 48 h
HOP-62 = tested on: HOP-62
HCT-116 = tested on: HCT-116
NCI-H460 = tested on: NCI-H460
MDA-MB-231 = tested on: MDA-MB-231
SF-295 = tested on: SF-295
OVCAR-5 = tested on: OVCAR-5
HCT-15 = tested on: HCT-15
SN12C = tested on: SN12C
MDA-N = tested on: MDA-N
SK-MEL-5 = tested on: SK-MEL-5
OVCAR-3 = tested on: OVCAR-3
HCC 2998 = tested on: HCC 2998
COLO 205 = tested on: COLO 205
SW-620 = tested on: SW-620
LOX IMVI = tested on: LOX IMVI
EKVX = tested on: EKVX
Malme-3M = tested on: Malme-3M
K562 = tested on: K562
PC-3 = tested on: PC-3
MOLT-4 = tested on: MOLT-4

Row | Structure (SMILES) | GI50 (HOP-62) | GI50 (HCT-116) | GI50 (NCI-H460) | GI50 (MDA-MB-231) | GI50 (SF-295) | GI50 (OVCAR-5) | GI50 (HCT-15) | GI50 (SN12C) | GI50 (MDA-N) | GI50 (SK-MEL-5) | GI50 (OVCAR-3) | GI50 (HCC 2998) | GI50 (COLO 205) | GI50 (SW-620) | GI50 (LOX IMVI) | GI50 (EKVX) | GI50 (Malme-3M) | GI50 (K562) | GI50 (PC-3) | GI50 (MOLT-4)
1 | N#C/C(=C/NC(N)=S)C(N)=O | > 100 µM (inactive) | > 100 µM (inactive) | > 100 µM (inactive) | > 100 µM (inactive) | > 100 µM (inactive) | > 100 µM (inactive) | > 100 µM | > 100 µM (inactive) | > 100 µM (inactive) | > 100 µM (inactive) | > 100 µM (inactive) | > 100 µM (inactive) | > 100 µM (inactive) | > 100 µM (inactive) | > 100 µM (inactive) | > 100 µM (inactive) | – | – | – | –
2 | O=C(O)Cc1c(O)ccc2ccccc12 | > 100 µM (inactive) | > 100 µM (inactive) | > 100 µM (inactive) | > 100 µM (inactive) | > 100 µM (inactive) | > 100 µM (inactive) | > 100 µM | > 100 µM (inactive) | > 100 µM (inactive) | > 100 µM (inactive) | > 100 µM (inactive) | – | > 100 µM (inactive) | > 100 µM (inactive) | > 100 µM (inactive) | > 100 µM (inactive) | > 100 µM (inactive) | > 100 µM (inactive) | > 100 µM (inactive) | > 100 µM (inactive)
3 | CCCc1c2c3ccccc3nc-2nc2ccccn12 | 25.4 µM (inactive) | – | 32.8 µM (inactive) | 72.1 µM (inactive) | 49.8 µM (inactive) | 25.2 µM (inactive) | > 100 µM | 73.5 µM (inactive) | 74.5 µM (inactive) | > 100 µM (inactive) | 56 µM (inactive) | – | 97.7 µM (inactive) | 36.4 µM (inactive) | 41.4 µM (inactive) | > 100 µM (inactive) | 61.7 µM (inactive) | 52.6 µM (inactive) | 64.6 µM (inactive) | 67.5 µM (inactive)
4 | CC1=NN(c2cccc(Cl)c2)C2(C1=Cc1ccc(O)cc1)C(Cl)C(=O)N2c1nc2ccccc2s1 (stereo unspecified) | 20.9 µM (inactive) | 15.9 µM (inactive) | 24.9 µM (inactive) | 24.6 µM (inactive) | 21.5 µM (inactive) | 29.4 µM (inactive) | 15.5 µM | – | 23.3 µM (inactive) | 16.6 µM (inactive) | 26 µM (inactive) | 18.8 µM (inactive) | – | 15.4 µM (inactive) | 22.1 µM (inactive) | 29.4 µM (inactive) | – | 18.6 µM (inactive) | 19.4 µM (inactive) | 14.2 µM (inactive)
5 | CO[C@H](C)[C@](O)(C(=O)OCC1=CCN2CC[C@@H](O)[C@H]12)C(C)C | > 100 µM (inactive) | > 100 µM (inactive) | 28.5 µM (inactive) | > 100 µM (inactive) | > 100 µM (inactive) | > 100 µM (inactive) | 55.2 µM | > 100 µM (inactive) | > 100 µM (inactive) | > 100 µM (inactive) | > 100 µM (inactive) | > 100 µM (inactive) | > 100 µM (inactive) | > 100 µM (inactive) | > 100 µM (inactive) | > 100 µM (inactive) | – | > 100 µM (inactive) | > 100 µM (inactive) | > 100 µM (inactive)
6 | CC(=O)O[C@H]1C(=O)[C@@]2(C)C(C(OC(=O)c3ccccc3)[C@]3(O)CC(OC(=O)C(O)C(NC(=O)c4ccccc4)c4ccc(F)cc4)C(C)=C1C3(C)C)[C@]1(OC(C)=O)CO[C@@H]1C[C@@H]2O (stereo partly specified) | 0.00233 µM (active) | < 0.001 µM (active) | < 0.001 µM (active) | 0.00181 µM (active) | 0.00401 µM (active) | 0.00141 µM (active) | 0.0129 µM | 0.00158 µM (active) | < 0.001 µM (active) | 0.00375 µM (active) | < 0.001 µM (active) | 0.00124 µM (active) | < 0.001 µM (active) | < 0.001 µM (active) | 0.00129 µM (active) | 0.00857 µM (active) | – | < 0.001 µM (active) | < 0.001 µM (active) | 0.00359 µM (active)
7 | O=c1[nH]c(=O)n(C2CC(O)C(CO)O2)cc1C1=NC1 (stereo unspecified) | > 100 µM (inactive) | > 100 µM (inactive) | > 100 µM (inactive) | > 100 µM (inactive) | > 100 µM (inactive) | > 100 µM (inactive) | > 100 µM | > 100 µM (inactive) | > 100 µM (inactive) | > 100 µM (inactive) | > 100 µM (inactive) | > 100 µM (inactive) | > 100 µM (inactive) | > 100 µM (inactive) | – | > 100 µM (inactive) | – | – | – | > 100 µM (inactive)
8 | CC(C(N)=O)N(C)C(=O)c1cnc2ccccc2c1 (stereo unspecified) | – | > 100 µM (inactive) | > 100 µM (inactive) | > 100 µM (inactive) | > 100 µM (inactive) | > 100 µM (inactive) | > 100 µM | > 100 µM (inactive) | > 100 µM (inactive) | > 100 µM (inactive) | > 100 µM (inactive) | > 100 µM (inactive) | > 100 µM (inactive) | > 100 µM (inactive) | – | – | > 100 µM (inactive) | 17 µM (inactive) | > 100 µM (inactive) | > 100 µM (inactive)
